The results in this text go back to US4990499A, “Anti-herpes simplex virus activity of 5-alkoxymethyl-2'-deoxycytidimes and their 5-monophosphates” (priority 1989, dated 1991).

Series [1] deals with Deoxynucleoside Triphosphate (dNTP) Pools in Uninfected Vero Cells. Put plainly: Deoxynucleoside triphosphate (dNTP) pools in uninfected (mock-infected) Vero cells. The format is cell-based. The settings on record: Table 7, uninfected Vero cells, treatment 7 hours, ± S.E. The procedure: Vero cells were treated with MMdCyd, H4 dUrd and MMdCyd+H4 dUrd. The cells were then assayed for the presence of deoxynucleoside triphosphates. Untreated Vero cells were also assayed for the presence of deoxynucleoside triphosphates, to provide a control.
^a Cells were mock infected for one hour. Different treatments were
^b Values are means of at least two assays of triplicate cell
Vero cells and HSV-infected Vero cells were treated with dGUO and dGUO and H4 dUrd. The cells were then assayed for the presence of deoxynucleoside triphosphates. Untreated Vero cells were also assayed for the presence of deoxynucleoside triphophate to provide a control.
Vero cells were treated with N-methyl-MMdCyd. The cells were then assayed for dNTP pools.

Series [2] in a line: Inhibition of proliferation (MTC), H-9 cells. Particulars: human, highest concentration tested. The format is cell-based. The procedure:
Inhibitory effects of MMdCyd on the proliferation of murine and human tumor cells was also investigated. MTC for MMdCyd was greater than 400 μg/ml (highest concentration tested) against Raji, MOLT/4F, MT4, CEM and H-9 (human) and L1210 (murine Leukemia) cells.

For the compound `COCc1cn([C@H]2C[C@H](O)[C@@H](CO)O2)c(=O)nc1N` [MMdCyd, 5-methoxymethyl-2'-deoxycytidine], in series [1], the dATP pool is 8.3 ± 0.32 .rho.moles/10^6 cells, the dCTP pool was 14.2 ± 1.30 .rho.moles/10^6 cells, the dGTP pool is on record as 52 ± 1.84 .rho.moles/10^6 cells and the dTTP pool was 44 ± 1.67 .rho.moles/10^6 cells. Also, the MCC in series [2] was > 400 µg/mL.
